Laboratory results taken from US12721857B2 (priority 2021, dated 2026).
Like-named read-outs stand apart in the source and are kept apart here.

What was measured:
Candida albicans = assay: Agar disk diffusion on urine cultures, Candida albicans; format: cell-based
From the text: (§1) Agar disk diffusion testing was used for antimicrobial susceptibility testing. The test provides qualitative results by categorizing susceptible, intermediate or resistant bacteria. Agar disk diffusion testing cannot distinguish bactericidal and bacteriostatic effects. Moreover, the agar disk-diffusion method is not appropriate to determine the minimum inhibitory concentration (MIC), as it is impossible to quantify the amount of the antimicrobial agent diffused into the agar medium. The advantages of this method, mainly simplicity and low cost, have contributed to its common use for the antimicrobial screening of plant extracts, essential oils, and other drugs.
(§2) The study has been performed on 47 urine samples collected from patients diagnosed with urinary tract infection (UTI), before instituting any type of therapy. Several types of pathogens were identified from the urine cultures performed: Escherichia coli-34 cases; Klebsiella pneumoniae-six cases; Proteus mirabilis-one case; Staphylococcus haemolyticus-one case; Enterococcus faecalis-two cases; Candida albicans-three cases. The susceptibility testing of the pathogens has been performed using DCB-impregnated microdisks to identify the optimal value that induces a significant inhibition of microbial culture development, compared to certified antibiotic/antifungal microdisks. The antibiogram/antifungal was performed on the Müller-Hinton (MH)/Sabouraud medium, and the results obtained using DCB-impregnated microdisks are presented in the Table 7, compared to the action of the reference microdisks.

[1] = target: acetylcholinesterase (AChE) (Homo sapiens, UniProt P22303); assay: In vitro acetylcholinesterase activity assay; format: biochemical
acetylcholinesterase (AChE), sequence (P22303 32-614, species assumed): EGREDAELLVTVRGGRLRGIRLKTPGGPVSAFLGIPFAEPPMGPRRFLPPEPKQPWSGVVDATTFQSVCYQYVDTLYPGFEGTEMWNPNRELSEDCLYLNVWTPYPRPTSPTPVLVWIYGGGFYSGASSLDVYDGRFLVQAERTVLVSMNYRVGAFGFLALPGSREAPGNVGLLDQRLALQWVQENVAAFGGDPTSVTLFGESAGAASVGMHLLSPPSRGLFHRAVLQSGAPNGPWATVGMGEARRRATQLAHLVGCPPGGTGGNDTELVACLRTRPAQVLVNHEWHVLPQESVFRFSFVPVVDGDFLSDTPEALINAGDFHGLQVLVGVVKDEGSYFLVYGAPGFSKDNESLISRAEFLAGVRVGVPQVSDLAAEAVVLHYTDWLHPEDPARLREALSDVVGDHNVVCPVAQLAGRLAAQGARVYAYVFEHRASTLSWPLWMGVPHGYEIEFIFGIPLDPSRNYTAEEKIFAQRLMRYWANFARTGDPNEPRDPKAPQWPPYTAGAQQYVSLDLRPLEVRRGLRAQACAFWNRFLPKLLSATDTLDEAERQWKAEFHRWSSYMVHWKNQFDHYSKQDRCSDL
Experimental: In the AChE assay, a reaction mixture containing DCB was incubated at 20° C. in the dark for 10 min, and 10 μL of AChE solution was then added. For measuring in vitro AChE activity, the test solutions contained DCB at various concentrations, including 5, 25, 50, 100, 200, and 400 µg/mL (FIGS. 13A and 13B). After AChE was added, the reaction mixture was incubated at 20° C. for 10 min, and the absorbance was measured at 405 nm.

Klebsiella pneumoniae = assay: Agar disk diffusion on urine cultures, Klebsiella pneumoniae; format: cell-based
From the text: as §1, §2

Proteus mirabilis = assay: Agar disk diffusion on urine cultures, Proteus mirabilis; format: cell-based
From the text: as §1, §2

Escherichia coli = assay: Agar disk diffusion on urine cultures, Escherichia coli; format: cell-based
From the text: as §1, §2

[2] = tested on: pathogens identified from urine cultures of patients with urinary tract infection; assay: Antibiotic/antifungal screening on urine cultures, all pathogens together; format: cell-based
From the text: as §1
as §2, with “The antibiogram/antifungal was performed on the Müller-Hinton (MH)/Sabouraud medium, and the results obtained using DCB-impregnated microdisks are presented in the Table 7, compared to the action of the reference microdisks.” left out

[3] = format: in vitro ADME
From the text: FIG. 11 is the in vitro simulation of DCB digestion: stomach (gastric phase, at pH 1.2 and pH 4.5) and duodenum (small intestinal phase, at pH 7.2). (DCB: Chlorogenoborate diester complex);
DCB is protected from acids or/and enzymes in the stomach and small intestine. Chlorogenic acids are, generally, resistant to acid environment and digestive enzymes. […] The DCB complex is dissociated in the colon by borate group transfer to cis-diol sugars, e.g., fructose and sialic acid, in bacteria in the microbiome in the gut mucus membrane. The sugar/borate complexes have a high association constant. […] At a gastric pH of 1.2, DCB undergoes about 50% degradation. When there is food in the stomach, after a meal, the stomach pH can raise to as high as 4-5. Under conditions prevailing after a meal (pH 4.5), DCB undergoes <6% degradation. Under conditions prevailing in the intestines (pH 7.2), DCB undergoes <4% degradation. Thus, when administered with a meal, DCB is protected in the gastrointestinal tract and works as a classical prebiotic. Alternatively, DCB may be administered in a dosage form with an enteric coating which is stable and protects DCB from stomach acids, but which dissolves or breaks down at pH values in the intestines. Suitable enteric polymers include methyl (meth)acrylate-(meth)acrylic acid copolymers, cellulose acetate phthalate (CAP), cellulose acetate succinate, hydroxypropyl methyl cellulose phthalate, hydroxypropyl methyl cellulose acetate succinate, polyvinyl acetate phthalate, and similar polymers.

[4] = In vivo DCB toxicity (acute, subchronic, chronic); parameters: species or system mice; conditions: both sexes, BALB/c, mouse, in vivo, po; acute, p.o. administration in mice; read-out: median lethal dose (LD50)
Experimental: (§3) In vivo DCB toxicity: The laboratory animals and the experimental protocol for determining acute, subchronic and chronic toxicity were established in accordance with the Organization for Economic Co-operation and Development (OECD) Guidelines for Testing of Chemicals. The toxicodynamic experiment was performed on groups of 10 BALB/c mice, eight weeks old, with an average weight of 25 g, the number of females and males being equally distributed (five for each group), which were administered different doses of DCB, at various intervals, as follows: • (i) for the acute experiment (at 24 hours): • (a) per os (p.o.), by oral gavage, five different doses of DCB in distilled water: 5 mg/kg body weight (b.w.), 50 mg/kg b.w., 300 mg/kg b.w., 2000 mg/kg b.w. and 5000 mg/kg b.w.; • (b) intra-peritoneal (i.p), a single dose of DCB, in saline: 50 mg/kg b.w.; • (ii) for the subacute experiment (lasting 28 days), three different daily doses of DCB in drinking water: 50 mg/kg b.w., 300 mg/kg b.w. and 1000 mg/kg b.w.; • (iii) for the chronic experiment (lasting 90 days), three different daily doses of DCB in drinking water: 50 mg/kg b.w., 300 mg/kg b.w. and 1000 mg/kg b.w. Throughout the duration of the experiment, the condition of the animals was monitored daily, at the same hour every day (during morning). Also, the animals were maintained in standard conditions of temperature, humidity, and lighting. Food and water were administered ad libitum. Standard Conditions Include: • A 14-hour light/10-hour dark cycle or 12 light/12 dark cycle; • A temperature of 65-75° F. (~18-23° C.); and • A humidity of 40-60%.
(§4) The control mice were monitored and maintained under the same conditions, only that instead of the DCB they received: • (i) for the acute experiment: (a) distilled water, p.o., by oral gavage and (b) saline, i.p., respectively; • (ii) for the subacute experiment and for the chronic one: only the drinking water normally consumed. […]

BALB/c mice = assay: In vivo DCB toxicity (acute, subchronic, chronic)
Experimental: as §3, §4

[5] = tested on: Staphylococcus haemolyticus; assay: Agar disk diffusion on urine cultures, Staphylococcus haemolyticus; format: cell-based
From the text: as §1, §2

DPPH scavenging assay = format: biochemical
L929 cells = format: cell-based; conditions: mouse, 24 h
Experimental: In vitro DCB cytotoxicity: The viability of L929 cells treated for 24 hours with different concentrations of DCB was tested by the 3-(4,5-dimethylthiazol-2-yl)-2,5-diphenyltetrazolium bromide (MTT) assay. The MTT assay is commonly used for cytotoxicity, viability, and cell proliferation studies. The treatment of cells with MTT allows the assessment of oxidative metabolism and cellular response to external factors that can have a positive or negative effect on cell survival in culture. This quantitative colorimetric method is based on the reduction of the yellow-colored compound MTT to a dark blue formazan. The reduction of MTT, achieved by mitochondrial enzymes, e.g., succinate dehydrogenase, is directly proportional to the number of viable cells, being an index of cellular/mitochondrial integrity. The optical density is evaluated spectrophotometrically, resulting in a direct relationship between absorbance, dye concentration, and the number of viable and metabolically active cells.
In multi-well plates, L929 cells were plated at a cell concentration of 10^4 cells/cm^2. MTT (1 mg/ml, in a culture medium without serum) and DCB was added to each well. […] The resulting solution was densitometered at 550 nm, there being a direct proportional relationship between the recorded optical density and the number of metabolically active cells.

Enterococcus faecalis = assay: Agar disk diffusion on urine cultures, Enterococcus faecalis; format: cell-based
From the text: as §1, §2

[6] = oral exposure, within 24-96 hours of ingestion; cited from earlier work

Structure (SMILES): OC(Cn1cncn1)(Cn1cncn1)c1ccc(F)cc1F [Fluconazole, reference compound]
- Inhibition diameter (Ø, mm] of microbial culture (Candida albicans; certified microdisk): 29-33 mm

Structure (SMILES): O=C(/C=C/c1ccc(O)c(O)c1)O[C@@H]1C[C@](O)(C(=O)O)C[C@@H](O)[C@H]1O [CA, Chlorogenic acid, reference compound]
- IC50 [1]: 243 µM
- inhibition at 110 µg/mL ([1]; read-out: inhibition of AChE activity): > 80%

Structure (SMILES): O=C(O)c1cn(C2CC2)c2cc(N3CCNCC3)c(F)cc2c1=O [Ciprofloxacin, reference compound]
- Inhibition diameter (Ø, mm] of microbial culture (Klebsiella pneumoniae; certified microdisk): 27-34 mm
- Inhibition diameter (Ø, mm] of microbial culture (Proteus mirabilis; certified microdisk): 33 mm
- Inhibition diameter (Ø, mm] of microbial culture (Escherichia coli; certified microdisk): 28-35 mm

Structure (SMILES): O=C(/C=C/c1ccc2c(c1)O[B-]1(O2)Oc2ccc(/C=C/C(=O)O[C@@H]3C[C@](O)(C(=O)O)C[C@@H](O)[C@H]3O)cc2O1)O[C@H]1C[C@@](O)(C(=O)O)C[C@H](O)[C@@H]1O (stereo partly shown) [DCB, diester chlorogenoborate]
- Inhibition diameter (Ø, mm] of microbial culture (Klebsiella pneumoniae; 0.025 μM DCB microdisk): 0 mm
- Inhibition diameter (Ø, mm] of microbial culture (Klebsiella pneumoniae; 2.5 μM DCB microdisk): 5-7 mm
- Inhibition diameter (Ø, mm] of microbial culture (Klebsiella pneumoniae; 5.0 μM DCB microdisk): 8-15 mm
- Inhibition diameter (Ø, mm] of microbial culture (Klebsiella pneumoniae; 50 μM DCB microdisk): 28-36 mm
- antimicrobial activity compared with certified microdisks ([2]; 50 μM DCB-impregnated microdisks): comparable to, or superior to, that of the certified microdisks
- influence on the growing pathogens ([2]; 0.025 to 2.5 μM DCB): little or no influence on the growing pathogens
- degradation ([3]; pH 1.2): about 50%
- degradation ([3]; pH 4.5): < 6%
- degradation ([3]; pH 7.2): < 4%
- LD50 at 24 h [4]: > 5000 mg/kg
- histopathology of internal organs (BALB/c mice; acute (24 hours), subchronic (28 days) and chronic (90 days) experiments): normal aspects were highlighted for all internal organs analyzed
- acute toxicity class (OECD) (BALB/c mice; p.o. administration in mice): Category V, practically non-toxic
- Inhibition diameter (Ø, mm] of microbial culture ([5]; 0.025 μM DCB microdisk): 0 mm
- Inhibition diameter (Ø, mm] of microbial culture ([5]; 2.5 μM DCB microdisk): 0 mm
- Inhibition diameter (Ø, mm] of microbial culture ([5]; 5.0 μM DCB microdisk): 11 mm
- Inhibition diameter (Ø, mm] of microbial culture ([5]; 50 μM DCB microdisk): 27 mm
- antioxidant activity relative to CA (DPPH scavenging assay): approximately six times more antioxidant activity than CA
- Inhibition diameter (Ø, mm] of microbial culture (Proteus mirabilis; 0.025 μM DCB microdisk): 0 mm
- Inhibition diameter (Ø, mm] of microbial culture (Proteus mirabilis; 2.5 μM DCB microdisk): 0 mm
- Inhibition diameter (Ø, mm] of microbial culture (Proteus mirabilis; 5.0 μM DCB microdisk): 15 mm
- Inhibition diameter (Ø, mm] of microbial culture (Proteus mirabilis; 50 μM DCB microdisk): 35 mm
- pKa (physchem): ~4
- Inhibition diameter (Ø, mm] of microbial culture (Candida albicans; 0.025 μM DCB microdisk): 0 mm
- Inhibition diameter (Ø, mm] of microbial culture (Candida albicans; 2.5 μM DCB microdisk): 0 mm
- Inhibition diameter (Ø, mm] of microbial culture (Candida albicans; 5.0 μM DCB microdisk): 12-18 mm
- Inhibition diameter (Ø, mm] of microbial culture (Candida albicans; 50 μM DCB microdisk): 37-40 mm
- Inhibition diameter (Ø, mm] of microbial culture (Escherichia coli; 0.025 μM DCB microdisk): 0 mm
- Inhibition diameter (Ø, mm] of microbial culture (Escherichia coli; 2.5 μM DCB microdisk): 6-8 mm
- Inhibition diameter (Ø, mm] of microbial culture (Escherichia coli; 5.0 μM DCB microdisk): 8-14 mm
- Inhibition diameter (Ø, mm] of microbial culture (Escherichia coli; 50 μM DCB microdisk): 29-37 mm
- IC50 [1]: 39.5 µM
- factor of AChE inhibition relative to CA [1]: about 3.4
- impact on cell viability compared with 5% aqueous DMSO control (L929 cells): much less impact on MTT concentration, and thus cell viability, than a negative control treated with 5% aqueous DMSO
- Inhibition diameter (Ø, mm] of microbial culture (Enterococcus faecalis; 0.025 μM DCB microdisk): 0 mm
- Inhibition diameter (Ø, mm] of microbial culture (Enterococcus faecalis; 2.5 μM DCB microdisk): 0 mm
- Inhibition diameter (Ø, mm] of microbial culture (Enterococcus faecalis; 5.0 μM DCB microdisk): 12-14 mm
- Inhibition diameter (Ø, mm] of microbial culture (Enterococcus faecalis; 50 μM DCB microdisk): 26-29 mm

Structure (SMILES): CO[C@@]1(NC(=O)Cc2cccs2)C(=O)N2C(C(=O)O)=C(COC(N)=O)CS[C@@H]21 [Cefoxitin, reference compound]
- Inhibition diameter (Ø, mm] of microbial culture ([5]; certified microdisk): 25 mm
- Inhibition diameter (Ø, mm] of microbial culture (Enterococcus faecalis; certified microdisk): 23-26 mm

Structure (SMILES): OB(O)O [BA, Boric acid]
- BA absorbed [6]: 81-95%
